Source: patent US7378445B2, “Treatment of prostate cancer” (Peplin Research Pty. Ltd., priority 2000, dated 2008)

How the values were obtained:
Format in all cases: cell-based
[1] = tested on: DU145 prostate cancer cells; assay: Combination with chemotherapeutic agents, cytotoxicity (3H-thymidine incorporation); settings: 24 hr treatment, then five days growth; for cytotoxicity of combination with cisplatin compared to additive cytotoxicity: FIGS. 6A, 6B, 6E; for cytotoxicity of combination with SBHA compared to additive cytotoxicity: FIGS. 6C, 6D
Method: The prostate cancer cells were treated with (A) PEP006 and cisplatin, (B) PEP008 and cisplatin, (C) PEP005 and SBHA, (D) PEP008 and SBHA and (E) PEP005 and cisplatin for 24 hr after which the medium was changed and the cells permitted to grow in the presence of ^3H-thymidine for five days. The percentage cell survival was determined by measuring the incorporation of ^3H-thymidine in the cells.

[2] = tested on: neonatal foreskin fibroblasts; assay: Killing by untreated leukocytes of drug-pretreated normal cells ([3H]-thymidine); settings: target cells pretreated with 60 ng/mL for 20 hr, washed; 48 hr with human leukocytes; 100:1 ratio of effector:target cells
Method: (§1) The question of whether drug treatment of the target tumor cells causes them to become susceptible to effector cells of the immune system was addressed as follows.
(§2) Leukocytes obtained by lysis of human peripheral blood were added to 5000 MM96L human melanoma cells or 7000 neonatal foreskin fibroblasts per microtitre well at effector: target ratios of 1000, 100 and 10:1. The target cells had been treated with 60 ng/mL PEP008 for 20 hr beforehand, and washed and the medium replaced before the leukocytes were added. After 48 hr incubation with the leukocytes the cultures were washed and labelled with [3H]-thymidine for 2 hr. […] Untreated leukocytes had no effect on cell survival.

[3] = tested on: MM96L human melanoma cells; assay: Killing by untreated leukocytes of drug-pretreated tumor cells ([3H]-thymidine); settings: target cells pretreated with 60 ng/mL for 20 hr, washed; 48 hr with human leukocytes; 100:1 ratio of effector:target cells
Method: as §1, §2

Row | Compound | cytotoxicity of combination with cisplatin compared to additive cytotoxicity [1] | cytotoxicity of combination with SBHA compared to additive cytotoxicity [1] | survival of normal fibroblasts [2] [%] | survival of melanoma cells [3] [%]
1 | C/C=C(/C)C(=O)O[C@H]1C(C)=C[C@]23C(=O)[C@@H](C=C(CO)[C@@H](O)[C@]12O)[C@H]1[C@@H](C[C@H]3C)C1(C)C [PEP005, Ingenol-3-angelate] | synergistic combinations | synergistic combinations |  | 
2 | C/C=C(/C)C(=O)O[C@H]1C(C)=C[C@]23C(=O)[C@H](C=C(C)[C@@H](O)[C@]12O)[C@H]1[C@@H](C[C@H]3C)C1(C)C [PEP006, 20-deoxy-Ingenol-3-angelate] | synergistic combinations |  |  | 
3 | C/C=C(/C)C(=O)O[C@H]1C(C)=C[C@]23C(=O)[C@@H](C=C(COC(C)=O)[C@@H](O)[C@]12O)[C@H]1[C@@H](C[C@H]3C)C1(C)C [PEP008, 20-O-acetyl-ingenol-3-angelate] | synergistic combinations | synergistic combinations | 100 | 12
